“Also recorded” adds a separate entry of the source.

Data set [1] deals with enterobacteria present in the colon. The following applies: oral treatment; azithromycin daily dose of 500 mg; cited from earlier work.
The nature of data set [2]: BioDis (USP III) release test in simulated human gastrointestinal fluids. It counts as physicochemical. The following applies: Biodiss system; successively soaked in simulated gastric, proximal jejunum, late jejunum, ileum and colon fluids (FIG. 2). Here is the method: In a particular embodiment, the intermediate coating is selected in order to achieve a delayed and/or controlled release of the antibacterial, as measured by in vitro testing such as BioDis dissolution tester (USP III release apparatus). In this system, the dosage form is successively placed into glass tubes (filled with approx 200 mL of dissolution media) corresponding to the different sections of the gastrointestinal tract, such as described by Fotaki and Coll, in European Journal of Pharmaceutics and Biopharmaceutics 73 (2009) 115-120. This allows a good simulation of in vivo release before testing into mammals. pH, fed state and various other physiological conditions can be tested. Using the BioDis system, it is possible for those skilled in the art to finely tune the formulation to achieve a desired pre-determined delayed release. It will be understood that this method is also useful for testing any kind of drug delivery system intended to deliver the antimicrobial(s) in a desired part of the intestine.
Legend: FIG. 1: Release of azithromycine in simulated human gastrointestinal tract using a Biodis system. The azithromycin cellet formulation, coated with 35% FS30D (Batch GL-058B4), is successively soaked into simulated fluids such as gastric, proximal jejunum, late jejunum, Ileum and colon. […]

A further data set concerns erythrocyte. The note with it: MIC for many bacteria; cited from earlier work.

For the compound `CC[C@H]1OC(=O)[C@H](C)[C@@H](O[C@H]2C[C@@](C)(OC)[C@@H](O)[C@H](C)O2)[C@H](C)[C@@H](O[C@@H]2O[C@H](C)C[C@H](N(C)C)[C@H]2O)[C@](C)(O)C[C@@H](C)C(=O)[C@H](C)[C@@H](O)[C@]1(C)O` [erythromycin], in data set [1], the “elimination of enterobacteria from the colon” value was “eliminated from the lumen”.
colistin: the “Release of colistin in simulated human gastrointestinal tract” value in data set [2] is given as “improves the release of colistin; also recorded: prevent from total colistin release”.
Take gramicidin S: the “concentration causing erythrocyte lysis relative to the MIC” value in the data set on erythrocyte is “threefold higher than the MIC”.
For the compound `CC[C@H]1OC(=O)[C@H](C)[C@@H](O[C@H]2C[C@@](C)(OC)[C@@H](O)[C@H](C)O2)[C@H](C)[C@@H](O[C@@H]2O[C@H](C)C[C@H](N(C)C)[C@H]2O)[C@](C)(O)C[C@@H](C)CN(C)[C@H](C)[C@@H](O)[C@]1(C)O` [Azithromycin], the “elimination of enterobacteria from the colon” value in data set [1] is “effective to eliminate Gram-negative enterobacteria from the colon”.

The values above are taken from patent US20120058936A1, “COMPOSITIONS AND METHODS FOR ELIMINATION OF GRAM NEGATIVE BACTERIA” (ASSISTANCE PUBLIQUE - HOPITAUX DE PARIS, priority 2009, published 2012).
